Key:
Factor 11 activity = test: Factor 11 protein activity, F11 assay based on clotting time (Example 45); format: in vivo, cynomolgus monkeys
Description: (§1) Groups, each consisting of two male and three female monkeys, were injected subcutaneously with ISIS 416838, ISIS 416850, ISIS 416858, ISIS 416864, or ISIS 417002 in escalating doses. Antisense oligonucleotide was administered to the monkeys at 5 mg/kg three times per a week for week 1; 5 mg/kg twice per week for weeks 2 and 3; 10 mg/kg three times per week for week 4; 10 mg/kg twice per week for weeks 5 and 6; 25 mg/kg three times per week for week 7; and 25 mg/kg twice per week for weeks 8, 9, 10, 11, and 12. One control group, consisting of two male and three female monkeys, was injected subcutaneously with PBS according to the same dosing regimen. An additional experimental group, consisting of two male and three female monkeys, was injected subcutaneously with ISIS 416850 in a chronic, lower dose regimen. Antisense oligonucleotide was administered to the monkeys at 5 mg/kg three times per week for week 1; 5 mg/kg twice per week for week 2 and 3; 10 mg/kg three times per week for week 4; and 10 mg/kg twice per week for weeks 5 to 12. Body weights were measured weekly. Blood samples were collected 14 days and 5 days before the start of treatment and subsequently once per week for Factor 11 protein activity analysis in plasma, fibrinogen measurement, PT and aPTT measurements, bleeding times, and measurement of various hematologic factors. On day 85, the monkeys were euthanized by exsanguination while under deep anesthesia, and organs harvested for further analysis.
Blood samples were collected at various time points and Factor 11 proenzyme was measured using a F11 assay based on clotting time. Clotting times were determined in duplicate with a ST4 semi-automated coagulation instrument (Diagnostica Stago, NJ). Thirty μl of citrated sample plasma diluted 1/20 in HEPES-NaCl buffer with BSA was incubated with 30 μl aPTT reagent (Automated aPTT, Organon Technika, NC) and 30 μl of citrated plasma deficient of Factor 11 (George King Bio-Medical Inc.) at 37° C. for 5 min, followed by the addition of 30 μl of 25 mM CaCl2) to initiate clotting. Results were interpolated on a standard curve of serially diluted citrated control plasma.
Results are presented in Table 118 as percent inhibition of Factor 11 activity, relative to PBS control. The ISIS oligonucleotide, ISIS 416850, given with the chronic dose regimen is distinguished from the other oligonucleotides with an asterisk (*).

[1] = Bleeding assay, Surgicutt Jr. device (Example 45); format: in vivo, cynomolgus monkeys; design: unit not given here
Description: as §1
On different days during the treatment period, bleeding assay was performed using a Surgicutt Jr. device (ITC, New Jersey). Monkeys were placed in monkey chair with their arm placed in a steady support. The arm was lightly shaved and a sphygmomanometer was placed on the upper arm. The cuff of the sphygmomanometer was inflated to 40 mm Hg and this pressure was maintained throughout the procedure. The area on the upper arm to be incised was cleansed with an antiseptic swab and the Surgicutt Jr device was used to make an incision over the lateral aspect, volar surface of the forearm, parallel to and 5 cm below the antecubital crease. At the exact moment the incision was made, a stopwatch was started. Every 30 seconds, blood from the incision was blotted out using a blotting paper without directly touching the incision, so that formation of the platelet plug was not disturbed. Blood was blotted out every 30 seconds until blood no longer stained the paper. The stopwatch was then stopped and the bleeding time determined. The sphygmomanometer was removed from the animal's arm, the incision site was antiseptically swabbed and a wound closure strip applied. The ISIS oligonucleotide, ISIS 416850, given with the chronic dose regimen is distinguished from the other oligonucleotides with an asterisk (*).

[2] = Kidney function, BUN, urine protein to creatinine ratio in cynomolgus monkeys (Example 46); format: in vivo; settings: for Urine protein/creatinine ratio: day 49
Description: Groups, each consisting of two male and two female monkeys, were injected subcutaneously with 25 mg/kg of ISIS 416850, ISIS 449709, ISIS 445522, ISIS 449710, ISIS 449707, ISIS 449711, ISIS 449708, 416858, and ISIS 445531. Antisense oligonucleotide was administered to the monkeys at 25 mg/kg three times per week for week 1 and 25 mg/kg twice per week for weeks 2 to 8. A control group, consisting of two male and two female monkeys was injected subcutaneously with PBS according to the same dosing regimen. Body weights were taken 14 days and 7 days before the start of treatment and were then measured weekly throughout the treatment period. Blood samples were collected 14 days and 5 days before the start of treatment and subsequently several times during the dosing regimen for PT and aPTT measurements, and measurement of various hematologic factors. On day 55, the monkeys were euthanized by exsanguination while under deep anesthesia, and organs harvested for further analysis.
To evaluate the impact of ISIS oligonucleotides on kidney function, urine samples were collected on different days. […] The ratio of urine protein to creatinine in urine samples after antisense oligonucleotide treatment was also calculated for day 49 and results are presented in Table 156. As observed in Tables 155 and 156, there were no significant increases in any of the kidney metabolic markers after antisense oligonucleotide treatment.

[3] = mouse, in vivo, sc, 50 mg/kg
[4] = Tolerability in CD1 mice: kidney function, BUN, creatinine (Example 33); settings: plasma, 50 mg/kg s.c. twice a week
Description: A control group of five mice was injected subcutaneously with PBS for 2 weeks. All experimental groups (i.e. ASO treated mice at 2, 4, 6 weeks) were compared to the control group (i.e. PBS, 2 weeks).
To evaluate the effect of ISIS oligonucleotides on kidney function, plasma concentrations of blood urea nitrogen (BUN) and creatinine were measured using an automated clinical chemistry analyzer (Hitachi Olympus AU400e, Melville, N.Y.).

[5] = day 15, chronic dose regimen (*)
[6] = day 15, escalating dose regimen
[7] = day 22, chronic dose regimen (*)
[8] = day 22, escalating dose regimen
[9] = day 29, escalating dose regimen
[10] = day 36, chronic dose regimen (*)
[11] = day 36, escalating dose regimen
[12] = day 43, chronic dose regimen (*)
[13] = day 43, escalating dose regimen
[14] = day 50, escalating dose regimen
[15] = day 57, escalating dose regimen
[16] = day 64, escalating dose regimen
[17] = day 71, escalating dose regimen
[18] = day 78, escalating dose regimen
[19] = day 85, escalating dose regimen
[20] = day −5, chronic dose regimen (*)
[21] = day −5, escalating dose regimen
[22] = day −14, chronic dose regimen (*)
[23] = day −14, escalating dose regimen
[24] = Day −5 (before start of treatment)
[25] = Day −14 (before start of treatment)

Substance: ISIS 416850: MOE gapmer, nucleobases 1275 to 1318 of SEQ ID NO: 1 (Table 8) (antisense TGCACAGTTTCTGGCAGGCC; MOE gapmer, wing and gap sizes not given here)
- percent inhibition of Factor 11 activity, relative to PBS control (Factor 11 activity; day 8, chronic dose regimen (*)): 6%
- percent inhibition of Factor 11 activity, relative to PBS control (Factor 11 activity; day 8, escalating dose regimen): 8%
- percent inhibition of Factor 11 activity, relative to PBS control (Factor 11 activity; [5]): 13%
- percent inhibition of Factor 11 activity, relative to PBS control (Factor 11 activity; [6]): 4%
- percent inhibition of Factor 11 activity, relative to PBS control (Factor 11 activity; [7]): 12%
- percent inhibition of Factor 11 activity, relative to PBS control (Factor 11 activity; [8]): 11%
- percent inhibition of Factor 11 activity, relative to PBS control (Factor 11 activity; day 29, chronic dose regimen (*)): 20%
- percent inhibition of Factor 11 activity, relative to PBS control (Factor 11 activity; [9]): 15%
- percent inhibition of Factor 11 activity, relative to PBS control (Factor 11 activity; [10]): 24%
- percent inhibition of Factor 11 activity, relative to PBS control (Factor 11 activity; [11]): 17%
- percent inhibition of Factor 11 activity, relative to PBS control (Factor 11 activity; [12]): 24%
- percent inhibition of Factor 11 activity, relative to PBS control (Factor 11 activity; [13]): 23%
- percent inhibition of Factor 11 activity, relative to PBS control (Factor 11 activity; day 50, chronic dose regimen (*)): 30%
- percent inhibition of Factor 11 activity, relative to PBS control (Factor 11 activity; [14]): 42%
- percent inhibition of Factor 11 activity, relative to PBS control (Factor 11 activity; [15]): 49%
- percent inhibition of Factor 11 activity, relative to PBS control (Factor 11 activity; [16]): 55%
- percent inhibition of Factor 11 activity, relative to PBS control (Factor 11 activity; [17]): 57%
- percent inhibition of Factor 11 activity, relative to PBS control (Factor 11 activity; [18]): 63%
- percent inhibition of Factor 11 activity, relative to PBS control (Factor 11 activity; [19]): 64%
- percent inhibition of Factor 11 activity, relative to PBS control (Factor 11 activity; [20]): 1%
- percent inhibition of Factor 11 activity, relative to PBS control (Factor 11 activity; [21]): 0%
- percent inhibition of Factor 11 activity, relative to PBS control (Factor 11 activity; [22]): 0%
- percent inhibition of Factor 11 activity, relative to PBS control (Factor 11 activity; [23]): 0%
- bleeding time [1, 5]: 149
- bleeding time [1, 6]: 165
- bleeding time [1, 7]: 143
- bleeding time [1, 8]: 151
- bleeding time [1, 10]: 221
- bleeding time [1, 11]: 137
- bleeding time [1, 12]: 156
- bleeding time [1, 13]: 216
- bleeding time [1, 15]: 195
- bleeding time [1, 16]: 201
- bleeding time [1, 18]: 203
- bleeding time [1, 19]: 201
- bleeding time [1, 20]: 93
- bleeding time [1, 21]: 127
- bleeding time [1, 22]: 177
- bleeding time [1, 23]: 172
- BUN levels ([2]; Day 31): 21 mg/dL
- BUN levels ([2]; Day 55): 26 mg/dL
- BUN levels [2, 24]: 23 mg/dL
- BUN levels [2, 25]: 24 mg/dL
- Urine protein/creatinine ratio [2]: 0.08
- ALT [3]: 75 IU/L
- AST [3]: 99 IU/L
- Bilirubin [3]: 0.21 mg/dL
- Cholesterol [3]: 142 mg/dL
- BUN ([4]; 2 weeks): 25 mg/dL
- Creatinine ([4]; 2 weeks): 0.13 mg/dL
- BUN ([4]; 4 weeks): 30 mg/dL
- Creatinine ([4]; 4 weeks): 0.22 mg/dL
- BUN ([4]; 6 weeks): 23 mg/dL
- Creatinine ([4]; 6 weeks): 0.19 mg/dL

Substance: ISIS 416858: MOE gapmer, nucleobases 1275 to 1318 of SEQ ID NO: 1 (Table 8) (antisense ACGGCATTGGTGCACAGTTT; MOE gapmer, wing and gap sizes not given here)
- percent inhibition of Factor 11 activity, relative to PBS control (Factor 11 activity; day 8, escalating dose regimen): 6%
- percent inhibition of Factor 11 activity, relative to PBS control (Factor 11 activity; [6]): 16%
- percent inhibition of Factor 11 activity, relative to PBS control (Factor 11 activity; [8]): 23%
- percent inhibition of Factor 11 activity, relative to PBS control (Factor 11 activity; [9]): 28%
- percent inhibition of Factor 11 activity, relative to PBS control (Factor 11 activity; [11]): 35%
- percent inhibition of Factor 11 activity, relative to PBS control (Factor 11 activity; [13]): 39%
- percent inhibition of Factor 11 activity, relative to PBS control (Factor 11 activity; [14]): 49%
- percent inhibition of Factor 11 activity, relative to PBS control (Factor 11 activity; [15]): 60%
- percent inhibition of Factor 11 activity, relative to PBS control (Factor 11 activity; [16]): 68%
- percent inhibition of Factor 11 activity, relative to PBS control (Factor 11 activity; [17]): 71%
- percent inhibition of Factor 11 activity, relative to PBS control (Factor 11 activity; [18]): 73%
- percent inhibition of Factor 11 activity, relative to PBS control (Factor 11 activity; [19]): 78%
- percent inhibition of Factor 11 activity, relative to PBS control (Factor 11 activity; [21]): 0%
- percent inhibition of Factor 11 activity, relative to PBS control (Factor 11 activity; [23]): 0%
- bleeding time [1, 6]: 146
- bleeding time [1, 8]: 100
- bleeding time [1, 11]: 206
- bleeding time [1, 13]: 111
- bleeding time [1, 15]: 138
- bleeding time [1, 16]: 113
- bleeding time [1, 18]: 186
- bleeding time [1, 19]: 191
- bleeding time [1, 21]: 149
- bleeding time [1, 23]: 154
- BUN levels ([2]; Day 31): 23 mg/dL
- BUN levels ([2]; Day 55): 24 mg/dL
- BUN levels [2, 24]: 24 mg/dL
- BUN levels [2, 25]: 25 mg/dL
- Urine protein/creatinine ratio [2]: 0.05
- ALT [3]: 640 IU/L
- AST [3]: 547 IU/L
- Bilirubin [3]: 0.28 mg/dL
- Cholesterol [3]: 181 mg/dL
- BUN ([4]; 2 weeks): 21 mg/dL
- Creatinine ([4]; 2 weeks): 0.13 mg/dL
- BUN ([4]; 4 weeks): 29 mg/dL
- Creatinine ([4]; 4 weeks): 0.23 mg/dL
- BUN ([4]; 6 weeks): 19 mg/dL
- Creatinine ([4]; 6 weeks): 0.10 mg/dL
